In US4216226A (priority 1977, dated 1980):
Structures can show the parent of a compound that is named as a salt. Where two headings read alike, the source gives them in different places.

What was measured:
[1] = tested on: Newcastle disease virus (NDV) Miyadera strain; type: cell-based
[2] = tested on: Infectious pancrease necrosis virus (IPNV); type: cell-based
[3] = tested on: Influenza virus A-O/PR-8 strain; type: cell-based
[4] = tested on: Vaccinia virus Lister strain; type: cell-based
Herpes virus = type: cell-based
[5] = tested on: Influenza virus A0 /PR-8 strain; type: in vivo, mice of the ICR strain; conditions: intraperitoneal, twice a day for 3 days, mouse lung at 72 hours
[6] = tested on: vaccinia virus Lister strain; type: in vivo, mice of the ICR strain; conditions: subcutaneous, 4 times first day, twice a day days 2-5, 10th day
[7] = tested on: Newcastle disease virus Sato strain; type: in vivo, embryonated chick egg; conditions: for MDT (difference from control): Sato strain, 104 hours incubation
[8] = tested on: Newcastle disease virus Miyadera strain; type: in vivo, embryonated chick egg; conditions: for MDT (difference from control): Miyadera strain, 104 hours incubation
[9] = tested on: Newcastle disease virus I(1) strain; type: in vivo, embryonated chick egg; conditions: 104 hours incubation
[10] = tested on: Newcastle disease virus Komarov strain; type: in vivo, embryonated chick egg; conditions: for MDT (difference from control): Komarov strain, 104 hours incubation
mice = conditions: mouse, in vivo, ip
in vitro [11] = conditions: human, hela s3 cells
in vitro [12] = conditions: rainbow trout, rtg-2 cells
[13] = tested on: Vesicular stomatitis virus (VSV); type: cell-based
[14] = tested on: IPNV (infectious pancreas necrosis virus); assay: Preventing IPN virus in fish; type: in vivo, rainbow trout; conditions: 16 ppm water bath 96 hours, 18° C.; for Cumulative number of dying fish: 20 fish
Description: 40 Young (4-6 cm in body length) rainbow trout were sensitised by immersion for 3 hours under aeration in 7.5 liters of a water bath containing IPNV (infectious pancreas necrosis virus) which was prepared by diluting to a 1000-fold volume a cell stock of IPNV (virus titer: 10^6.301 TCID50 /ml) cultured in RTG-2 cells. Immediately after this sensitisation, the fish were divided into two groups each comprising 20 fish and each group was placed in two glass vessels containing 50 liters of water, respectively. The first group of fish was the treated group, while the second group of fish was the control group (untreated).
After the first group of fish was placed in the water-containing vessel, L-hydroxyureidomethyl glycine was dissolved in the water to a concentration of 16 ppm. in this vessel, whereupon the fish were treated during 96 hours with the water bath containing the active compound. Thereafter, the active solution of the bath was replaced by fresh water containing no active compound, and the fish were observed daily to count the number of the young fish which fell dead. The active compound was not added to the water in the second vessel containing the second group of fish (control group), although replacement of water was made in the second vessel. In this way, the effect of L-hydroxyureidomethyl glycine in preventing IPNV infection was estimated. All of the tests were conducted in the water at 18° C.

Influenza virus = type: cell-based
viruses = conditions: cited from earlier work
[15] = HeLa S3 cell, 37° C., 5-7 days, at MDC, 1/2 or 1/4 MDC, vs control
[16] = Vero cell, 37° C., 5-7 days, at MDC, 1/2 or 1/4 MDC, vs control
[17] = L-929 cell, 37° C., 5-7 days, at MDC, 1/2 or 1/4 MDC, vs control

Row | Structure (SMILES) | Difference of -log TCID50 /ml, NDV [1, 15] | Difference of -log TCID50 /ml, IPNV [2] | Difference of -log TCID50 /ml, Influenza virus [3, 16] | MCC (in vitro [11]) [µg/mL] | MCC (in vitro [12]) [µg/mL] | Difference of -log TCID50 /ml, VSV [13, 17] | further results
1 | N[C@@H](Cc1ccc(O)cn1)C(=O)O | > 4.00 | 3.75 | 1.00 | 500 | 500 |  | Difference of -log TCID50 /ml, Vaccinia virus [4, 15]: > 1.97; Difference of -log TCID50 /ml, Herpes virus (Herpes virus): > 2.50; Per cent of Inhibition (virus multiplication, HA units) ([5]; 50 mg/kg): 52%; Per cent of Inhibition (virus multiplication, HA units) ([5]; 100 mg/kg): 77%; Percent of inhibition of pock ([6]; 6.2 mg/kg): 56.9%; MDT (difference from control) ([7]; 500 mg per egg): > 12.1; MDT (difference from control) ([7]; 1,000 mg per egg): > 19.2; Δlog MLD ([7]; in vivo): 0.5; MDT (difference from control) ([8]; 500 mg per egg): -3.1; MDT (difference from control) ([8]; 1,000 mg per egg): 14.8; MDT (difference from control) ([9]; 500 mg per egg): > 80.4; MDT (difference from control) ([9]; 1,000 mg per egg): > 16.8; MDT (difference from control) ([10]; 500 mg per egg): 3.2; MDT (difference from control) ([10]; 1,000 mg per egg): 0; Δlog MLD ([10]; in vivo): 1.0; Acute toxicity LD0 (mice): > 1000 mg/kg
2 | NCC(N)C(=O)O (racemic) [DL-Aminomethyl glycine hydrochloride] | 1.50 |  | 1.00 | > 1000 | 3000 | 0.33 | Difference of -log TCID50 /ml, Vaccinia virus [4, 15]: 0.17; Difference of -log TCID50 /ml, Herpes virus (Herpes virus): > 2.50
3 | NC(=O)NCC(N)C(=O)O (racemic) [DL-Ureidomethyl glycine] | 1.17 | 3.50 |  | > 1000 | 2000 |  | 
4 | NC(Cc1ccc(O)cn1)C(=O)O (racemic) [DL-p-Hydroxypyridylmethyl glycine] | > 3.00 | 3.50 | 0.50 | > 1000 | 1000 | > 2.83 | 
5 | NC(Cc1ccc(F)cc1)C(=O)O (racemic) [DL-p-fluoro-phenyl alanine, reference compound] | 1.17 | 0 | 0 | 125 | 250 | 1.00 | 
6 | NC(CCP(=O)(O)O)C(=O)O (racemic) [DL-phosphonoethyl glycine] |  | 1.30 |  | 250 | 4000 |  | Difference of -log TCID50 /ml, NDV [1]: 1.50; Difference of -log TCID50 /ml, VSV [13]: 0.50; Difference of -log TCID50 /ml, Influenza virus [3]: 1.00; Difference of -log TCID50 /ml, Vaccinia virus [4]: 1.17; Difference of -log TCID50 /ml, Herpes virus (Herpes virus; Hep No. 2 cell, 37° C., 5-7 days, at MDC, 1/2 or 1/4 MDC, vs control): 0.50
7 | Cl.NC12CC3CC(CC(C3)C1)C2 [1-Adamantanamine hydrochloride, reference compound] |  | 2.75 | > 2.00 | 250 | 31.2 |  | Per cent of Inhibition (virus multiplication, HA units) ([5]; 100 mg/kg): 76%
8 | NC(=O)NO [Hydroxyurea, reference compound] |  |  |  |  |  |  | Percent of inhibition of pock ([6]; 50 mg/kg): 42.8%
9 | O=C(O)C1NC2CC21 [L-3,5-Cyclo-2-pyrrolidylcarboxylic acid] | 0.17 | 3.50 | 2.00 | > 1000 | 1000 |  | 
10 | NC[C@H](N)C(=O)O [L-Aminomethyl glycine hydrochloride] | 1.50 |  | 1.00 | > 1000 | 4000 | 0.67 | Difference of -log TCID50 /ml, Vaccinia virus [4, 15]: 0.33; Difference of -log TCID50 /ml, Herpes virus (Herpes virus): > 2.50
11 | O=C1O[C@H]([C@@H](O)CO)C(O)=C1O [L-Ascorbic acid, reference compound] | 0.83 |  | 0 | 125 | 2000 | 1.00 | 
12 | N[C@@H](CNC(=O)NO)C(=O)O [L-Hydroxyureidomethyl glycine] | 0.50 | 4.00 |  | > 1000 | 4000 |  | Difference of -log TCID50 /ml, Vaccinia virus [4, 15]: 3.50; Survival rate ([14]; 67 days, control 10%): 95%; Cumulative number of dying fish ([14]; 28 days, control 0): 0; Cumulative number of dying fish ([14]; 46 days, control 2): 0; Cumulative number of dying fish ([14]; 55 days, control 13): 0; Cumulative number of dying fish ([14]; 67 days, control 18): 1; Per cent of Inhibition (virus multiplication, HA units) ([5]; 100 mg/kg): 65%; Percent of inhibition of pock ([6]; 25 mg/kg): 33.7%; Percent of inhibition of pock ([6]; 50 mg/kg): 48.0%; Acute toxicity LD0 (mice): > 3000 mg/kg
13 | CP(=O)(O)CC[C@H](N)C(=O)O [L-Methylphosphinoethyl glycine sodium salt] | 2.00 |  |  | > 1000 | 4000 |  | Difference of -log TCID50 /ml, Influenza virus (calculated from chick hemagglutination titer) (Influenza virus): > 7.3
14 | NC(=O)NC[C@H](N)C(=O)O [L-Ureidomethyl glycine hydrochloride] | > 4.00 | 3.75 |  | > 1000 | 4000 | 0.33 | Difference of -log TCID50 /ml, Vaccinia virus [4, 15]: 1.17; Difference of -log TCID50 /ml, Herpes virus (Herpes virus): 1.50
15 | NC(=O)NC[C@H](N)C(=O)O [L-Ureidomethyl glycine] |  |  |  |  |  |  | MDT (difference from control) ([7]; 500 mg per egg): -6.4; MDT (difference from control) ([7]; 1,000 mg per egg): > 4.6; MDT (difference from control) ([8]; 500 mg per egg): 3.2; MDT (difference from control) ([8]; 1,000 mg per egg): -6.4; Δlog MLD ([8]; in vivo): 0; MDT (difference from control) ([9]; 500 mg per egg): > 5.2; MDT (difference from control) ([9]; 1,000 mg per egg): -1.6; MDT (difference from control) ([10]; 500 mg per egg): > 13.8; MDT (difference from control) ([10]; 1,000 mg per egg): > 29.8
16 | CP(=O)(O)CC[C@H](N)C(=O)O [L-methylphosphinoethyl glycine, L-Methylphosphinoethyl glycine] |  |  |  |  |  |  | Per cent of Inhibition (virus multiplication, HA units) ([5]; 50 mg/kg): 67%; MDT (difference from control) ([7]; 250 mg per egg): > 30.6; MDT (difference from control) ([7]; 500 mg per egg): > 95.6; MDT (difference from control) ([8]; 250 mg per egg): 2.4; MDT (difference from control) ([8]; 500 mg per egg): > 45.6; MDT (difference from control) ([9]; 250 mg per egg): > 23.2; MDT (difference from control) ([9]; 500 mg per egg): 4.8; MDT (difference from control) ([10]; 250 mg per egg): > 4.8; MDT (difference from control) ([10]; 500 mg per egg): > 27.8
17 | COC(=O)[C@@H](N)Cc1ccc(O)cn1 [L-p-Hydroxypyridylmethyl glycine methylester hydrochloride] | 2.00 | 3.75 | 1.00 | 1000 | 1500 |  | Acute toxicity LD0 (mice): > 1000 mg/kg
18 | NC(Cc1ccc(F)cc1)C(=O)O (centres unmarked) [p-fluoro-phenyl alanine] |  |  |  |  |  |  | antiviral activity (reported) (viruses): exhibits an antiviral activity
